Source: patent publication US6815546B2, “Analogues of camptothecin, their use as medicaments and the pharmaceutical compositions containing them” (Societe de Recherches et d'Applications Scientifiques …, priority 1995, dated 2004)

Test system: Adenocarcinoma HT29 cells from the human colon
Assay: Adenocarcinoma HT29 cell proliferation, WST1 (compounds in DMA)
Format: cell-based
Conditions: 72 hours, final DMA 0.1% (v/v)
Protocol: c. Adenocarcinoma HT29 cells from the human colon are cultured in a single layer at 37° in a humidified atmosphere containing 95% of air and 5% of CO2, in a modified essential Earle's medium at 4.5 g/l (Gibco, Paisley, United Kingdom); completed with 10% of inactivated foetal calf serum, 2 mM of glutamine, and 50 μg/ml of gentamycin (Gibco, Paisley, United Kingdom).
Approximately 2000 cells are seeded with the culture medium above in the wells of a microplate (96 wells, flat-bottomed) and incubated for 24 hours. Solutions in N,N-dimethyl-acetamide (DMA) of each of the examples of the invention, diluted in the culture medium so that the final concentration of DMA is 0.1% (v/v), are added to the plate cultures in order to obtain final concentration ranges from 1×10^−13 to 1×10^−5 M, and the cells are incubated for 72 hours.
The WST1 staining reagent, (Boehringer Mannheim, Germany) is then added to each well at a final concentration of 9%, and the cells are incubated for 2 hours at 37° C. This stage allows the mitochondrial deshydrogenase of the living cells to convert WST1 orange tetrazolium salt into crimson formazan. The resulting stained solutions are quantified by dual-beam detection ([…]) using a multi-cuvette scanning spectrophotometer.
The results shown in the following table III C) are expressed in terms of inhibitory concentration at 50% (IC50, in nM), accompanied by a confidence interval.

Row | Compound | IC50 [nM]
1 | CC[C@@]1(O)CC(=O)OCc2c1cc1n(c2=O)Cc2c-1nc1ccccc1c2Cl [Example 160, (5R)-12-chloro-5-ethyl-5-hydroxy-4,5,13,15-tetrahydro-1H,3H-oxepino[3′,4′:6,7]indolizino[1,2-b]quinoleine-3,15-dione] | 5.5
2 | CC[C@@]1(O)CC(=O)OCc2c1cc1n(c2=O)Cc2c-1nc1cc(F)ccc1c2CC(C)C [Example 162, (5R)-5-ethyl-9-fluoro-5-hydroxy-12-isobutyl-4,5,13,15-tetrahydro-1H,3H-oxepino[3′,4′:6,7]indolizino[1,2-b]quinoleine-3,15-dione] | 12
3 | CC[C@@]1(O)CC(=O)OCc2c1cc1n(c2=O)Cc2c-1nc1cc(F)ccc1c2CC(C)(C)C [Example 163, (5R)-5-ethyl-9-fluoro-5-hydroxy-12-neopentyl-4,5,13,15-tetrahydro-1H,3H-oxepino[3′,4′:6,7]indolizino[1,2-b]quinoleine-3,15-dione] | 6
4 | CC[C@@]1(O)CC(=O)OCc2c1cc1n(c2=O)Cc2c-1nc1cc(F)ccc1c2-c1cccc(F)c1 [Example 164, (5R)-5-ethyl-9-fluoro-12-(3-fluorophenyl)-5-hydroxy-4,5,13,15-tetrahydro-1H,3H-oxepino[3′,4′:6,7]indolizino[1,2-b]quinoleine-3,15-dione] | 2.7
5 | CC[C@@]1(O)CC(=O)OCc2c1cc1n(c2=O)Cc2c-1nc1cc(F)ccc1c2-c1ccc(C(F)(F)F)cc1 [Example 165, (5R)-5-ethyl-9-fluoro-5-hydroxy-12-(4-trifluoromethylphenyl)-4,5,13,15-tetrahydro-1H,3H-oxepino[3′,4′:6,7]indolizino[1,2-b]quinoleine-3,15-dione] | 1.7
6 | CC[C@@]1(O)CC(=O)OCc2c1cc1n(c2=O)Cc2c-1nc1cc(F)ccc1c2-c1ccc(OC(F)(F)F)cc1 [Example 166, (5R)-5-ethyl-9-fluoro-5-hydroxy-12-(4-trifluoromethoxyphenyl)-4,5,13,15-tetrahydro-1H,3H-oxepino[3′,4′:6,7]indolizino[1,2-b]quinoleine-3,15-dione] | 8.9
7 | CC[C@@]1(O)CC(=O)OCc2c1cc1n(c2=O)Cc2c-1nc1cc(F)ccc1c2-c1ccc(N(C)C)cc1 [Example 167, (5R)-12-(4-dimethylaminophenyl)-5-ethyl-9-fluoro-5-hydroxy-4,5,13,15-tetrahydro-1H,3H-oxepino[3′,4′:6,7]indolizino [1,2-b]quinoleine-3,15-dione] | 13
8 | CCCc1c2c(nc3cc(F)cc(F)c13)-c1cc3c(c(=O)n1C2)COC(=O)C[C@]3(O)CC [Example 169, (5R)-5-ethyl-9,11-difluoro-5-hydroxy-12-propyl-4,5,13,15-tetrahydro-1H,3H-oxepino[3′,4′:6,7]indolizino[1,2-b]quinoleine-3,15-dione] | 2.3
9 | CCOCCc1c2c(nc3cc(F)cc(F)c13)-c1cc3c(c(=O)n1C2)COC(=O)C[C@]3(O)CC [Example 170, (5R)-12-(2-ethoxyethyl)-5-ethyl-9,11-difluoro-5-hydroxy-4,5,13,15-tetrahydro-1H,3H-oxepino[3′,4′:6,7]indolizino[1,2-b]quinoleine-3,15-dione] | 0.85
10 | CC[C@@]1(O)CC(=O)OCc2c1cc1n(c2=O)Cc2cc3c(F)c(F)c(F)cc3nc2-1 [Example 171, (5R)-5-ethyl-9,10,11-trifluoro-5-hydroxy-4,5,13,15-tetrahydro-1H,3H-oxepino[3′,4′:6,7]indolizino[1,2-b]quinoleine-3,15-dione] | 8.2

Same assay, conditions: Homo sapiens, HT-29, 72 hours, final DMA 0.1% (v/v)

Row | Compound | IC50 [nM]
11 | CCCCc1c2c(nc3cc(F)c(F)cc13)-c1cc3c(c(=O)n1C2)COC(=O)C[C@]3(O)CC [Example 95, (5R)-12-butyl-5-ethyl-9,10-difluoro-5-hydroxy-4,5,13,15-tetrahydro-1H,3H-oxepino[3′,4′:6,7]indolizino[1,2-b]quinoline-3,15-dione] | 8.5
12 | CCCc1c2c(nc3cc(F)c(F)cc13)-c1cc3c(c(=O)n1C2)COC(=O)C[C@]3(O)CC [Example 97, (5R)-5-ethyl-9,10-difluoro-5-hydroxy-12-propyl-4,5,13,15-tetrahydro-1H,3H-oxepino[3′,4′:6,7]indolizino[1,2-b]quinoline-3,15-dione] | 11
13 | CCc1c2c(nc3cc(F)c(F)cc13)-c1cc3c(c(=O)n1C2)COC(=O)C[C@]3(O)CC [Example 98, (5R)-5,12-diethyl-9,10-difluoro-5-hydroxy-4,5,13,15-tetrahydro-1H,3H-oxepino[3′,4′:6,7]indolizino[1,2-b]quinoline-3,15-dione] | 2.1
14 | CC[C@@]1(O)CC(=O)OCc2c1cc1n(c2=O)Cc2c-1nc1cc(F)c(F)cc1c2CC[Si](C)(C)C [Example 99, (5R)-5-ethyl-9,10-difluoro-5-hydroxy-1 2-(2-trimethylsilylethyl)-4,5,13,15-tetrahydro-1H,3H-oxepino[3′,4′:6,7]indolizino[1,2-b]quinoline-3,15-dione] | 5
15 | CC[C@@]1(O)CC(=O)OCc2c1cc1n(c2=O)Cc2cc3c(F)cc(F)cc3nc2-1 [Example 100, (5R)-5-ethyl-9,11-difluoro-5-hydroxy-4,5,13,15-tetrahydro-1H,3H-oxepino[3′,4′:6,7]indolizino[1,2-b]quinoline-3,15-dione] | 2.2
16 | CCc1c2c(nc3cc(F)cc(F)c13)-c1cc3c(c(=O)n1C2)COC(=O)C[C@]3(O)CC [Example 102, (5R)-5,12-diethyl-9,1 1-difluoro-5-hydroxy-4,5,13,15-tetrahydro-1H,3H-oxepino[3′,4′:6,7]indolizino[1,2-b]quinoline-3,15-dione] | 8
17 | CC[C@@]1(O)CC(=O)OCc2c1cc1n(c2=O)Cc2c-1nc1ccccc1c2CC[Si](C)(C)C [Example 104, (5R)-5-ethyl-5-hydroxy-12-(2-trimethylsilylethyl)-4,5,13,15-tetrahydro-1H,3H-oxepino[3′,4′:6,7]indolizino[1,2-b]quinoline-3,15-dione] | 8.6
18 | CCCCc1c2c(nc3cc(F)ccc13)-c1cc3c(c(=O)n1C2)COC(=O)C[C@]3(O)CC [Example 105, (5R)-12-butyl-5-ethyl-9-fluoro-5-hydroxy-4,5,13,15-tetrahydro-1H,3H-oxepino[3′,4′:6,7]indolizino[1,2-b]quinoline-3,15-dione] | 9.5
19 | CCc1c2c(nc3cc(F)ccc13)-c1cc3c(c(=O)n1C2)COC(=O)C[C@]3(O)CC [Example 106, (5R)-5,12-diethyl-9-fluoro-5-hydroxy-4,5,13,15-tetrahydro-1H,3H-oxepino[3′,4′:6,7]indolizino[1,2-b]quinoline-3,15-dione] | 3.5
20 | CC[C@@]1(O)CC(=O)OCc2c1cc1n(c2=O)Cc2c-1nc1cc(F)ccc1c2-c1ccc(F)cc1 [Example 115, (5R)-5-ethyl-9-fluoro-12-(4-fluorophenyl)-5-hydroxy-4,5,13,15-tetrahydro-1H,3H-oxepino[3′,4′:6,7]indolizino[1,2-b]quinoline-3,15-dione] | 0.26
21 | CC[C@@]1(O)CC(=O)OCc2c1cc1n(c2=O)Cc2c-1nc1cc(F)ccc1c2-c1cc(F)cc(F)c1 [Example 117, (5R)-12-(3,5-difluorophenyl)-5-ethyl-9-fluoro-5-hydroxy-4,5,13,15-tetrahydro-1H,3H-oxepino[3′,4′:6,7]indolizino[1,2-b]quinoline-3,15-dione] | 0.25
22 | CC[C@@]1(O)CC(=O)OCc2c1cc1n(c2=O)Cc2c-1nc1cc(F)ccc1c2CCc1ccccc1 [Example 140, (5R)-5-ethyl-9-fluoro-5-hydroxy-12-phenethyl-4,5,13,15-tetrahydro-1H,3H-oxepino[3′,4′:6,7]indolizino[1,2-b]quinoline-3,15-dione] | 3.2
